Results published in patent US20080161232A1, “C5a Receptor Antagonist” (JERINI AG, priority 2005, published 2008).
Starred links: 1 amine or outer side, 2 acyl side, 3 side chain; linkers in the order of their positions; H or OH if unused. Positions of bridges follow the written chain, without caps; N, C: chain ends. Non-standard residues stand in square brackets, D forms with d. Residues, ends and D or L forms follow the SMILES beside them. Groups on a side chain read outwards from the residue. *: point of attachment. Phe(3,4-Cl2) = N[C@@H](Cc1ccc(Cl)c(Cl)c1)C(=O)O; Phe(3-Cl) = N[C@@H](Cc1cccc(Cl)c1)C(=O)O; Phe(4-Cl) = N[C@@H](Cc1ccc(Cl)cc1)C(=O)O; Bta = N[C@@H](Cc1csc2ccccc12)C(=O)O; Hyp = O=C(O)[C@@H]1C[C@@H](O)CN1; d(hLeu) = CC(C)CC[C@@H](N)C(=O)O; 2Thi = N[C@@H](Cc1cccs1)C(=O)O; dCha = N[C@H](CC1CCCCC1)C(=O)O; NHCH2CH(OH)CH2OH = OCC(O)CN*; hLeu = CC(C)CC[C@H](N)C(=O)O; Morpholide = C1CN(*)CCO1; Nle = CCCC[C@H](N)C(=O)O; Orn = NCCC[C@H](N)C(=O)O; Aze = O=C(O)[C@@H]1CCN1; CO = O=C([*:1])[*:2]; X22 = c1cncc(C*)c1; βAla = NCCC(=O)O

What follows are compounds tested against T1, human C5aR(CD88) (Homo sapiens, UniProt P21730) (assay: Determination of the IC50 value in an enzyme release assay (functional assay, antagonistic activity)). Details: antagonistic activity; IC50 group in enzyme release assay, RBL cells expressing human C5aR(CD88); read-out: activity (group).
T1 construct: expressed in transfected cells; host or cells: rat basophilic leukemia cells (RBL)
T1 sequence (P21730 1-350): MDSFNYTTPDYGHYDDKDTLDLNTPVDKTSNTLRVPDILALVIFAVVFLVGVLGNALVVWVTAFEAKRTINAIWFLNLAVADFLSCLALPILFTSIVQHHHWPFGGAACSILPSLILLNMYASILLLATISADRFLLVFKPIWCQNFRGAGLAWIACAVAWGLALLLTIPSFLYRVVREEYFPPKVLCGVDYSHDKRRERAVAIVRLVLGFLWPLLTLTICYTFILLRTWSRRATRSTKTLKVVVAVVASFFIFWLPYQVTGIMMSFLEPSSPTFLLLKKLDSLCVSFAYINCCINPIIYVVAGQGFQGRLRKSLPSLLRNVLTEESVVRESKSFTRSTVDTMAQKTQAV
Type: cell-based

Compared with `CCCC[C@@H]1NC(=O)[C@H](Cc2c[nH]c3ccccc23)NC(=O)[C@@H](CC2CCCCC2)NC(=O)[C@@H]2CCCN2C(=O)[C@@H](NC(=O)[C@H](Cc2ccccc2)NC(=O)N2CCOCC2)CCCNC1=O` [Compound 330, Fbo-Phe-[Orn-Pro-cha-Trp-Nle]] ({Morpholide-CO}-F[Orn]P[dCha]W[Nle]; lactam 2-C), `CC(=O)N[C@@H](Cc1ccccc1)C(=O)N[C@H]1CCCNC(=O)[C@H](CCC(C)C)NC(=O)[C@H](Cc2c[nH]c3ccccc23)NC(=O)[C@@H](CC2CCCCC2)NC(=O)[C@@H]2CCCN2C1=O` [Compound 32, Ac-Phe-[Orn-Pro-cha-Trp-Hle]] (Ac-F[Orn]P[dCha]W[hLeu]; lactam 2-C) is lower in IC50: 50 to 200 nM for the first, 20 to 50 nM for the second.

`CCCC[C@@H]1NC(=O)[C@H](Cc2c[nH]c3ccccc23)NC(=O)[C@@H](CC2CCCCC2)NC(=O)[C@@H]2CCCN2C(=O)[C@@H](NC(=O)[C@H](Cc2ccccc2)NC(=O)CON=C[C@H](O)[C@@H](O)[C@H](O)[C@H](O)CO)CCCNC1=O` [Compound 333, Fck-[Phe-Orn-Pro-cha-Trp-Nle]] and `CCCC[C@@H]1NC(=O)[C@H](Cc2c[nH]c3ccccc23)NC(=O)[C@@H](CC2CCCCC2)NC(=O)[C@@H]2C[C@@H](OC(=O)NCC(O)CO)CN2C(=O)[C@@H](NC(=O)[C@H](Cc2ccccc2)NC(C)=O)CCCNC1=O` (stereo partly drawn) [Compound 6, Ac-Phe-[Orn-Hyp(CONH—CH2CH(OH)—CH2OH)-cha-Trp-Nle]] (Ac-F[Orn][Hyp]([CO-NHCH2CH(OH)CH2OH])[dCha]W[Nle]; lactam 2-C) fall in the same range of IC50: 50 to 200 nM for the first, 50 to 200 nM for the second.

First: CC(=O)N[C@@H](Cc1ccccc1)C(=O)N[C@@H](CCCN)C(=O)N1CC[C@H]1C(=O)N[C@H](CC1CCCCC1)C(=O)N[C@@H](Cc1ccc(Cl)cc1)C(=O)N[C@@H](Cc1ccccc1)C(N)=O [Compound 81, Ac-Phe-Orn-Aze-cha-Pcf-Phe-NH2] (Ac-F[Orn][Aze][dCha][Phe(4-Cl)]F-NH2)
Second: CC(=O)N[C@@H](Cc1ccccc1)C(=O)N[C@@H](CCCN)C(=O)N1CC[C@H]1C(=O)N[C@H](CC1CCCCC1)C(=O)N[C@@H](Cc1cccc(Cl)c1)C(=O)N[C@@H](Cc1ccccc1)C(N)=O [Compound 100, Ac-Phe-Orn-Aze-cha-Mcf-Phe-NH2] (Ac-F[Orn][Aze][dCha][Phe(3-Cl)]F-NH2)
The IC50 of the first is higher: 200 to 2000 nM for the first, 50 to 200 nM for the second.

First: CC(=O)N[C@@H](Cc1ccccc1)C(=O)N[C@@H](CCCN)C(=O)N1CCC[C@H]1C(=O)N[C@H](CCC(C)C)C(=O)N[C@@H](Cc1csc2ccccc12)C(=O)N[C@@H](Cc1ccc(O)cc1)C(N)=O [Compound 282, Ac-Phe-Orn-Pro-hle-Bta-Tyr-NH2] (Ac-F[Orn]P[d(hLeu)][Bta]Y-NH2)
Second: CC(=O)NCC(=O)N[C@@H](Cc1cccs1)C(=O)N[C@@H](CCCN)C(=O)N1CC[C@H]1C(=O)N[C@H](CC1CCCCC1)C(=O)N[C@@H](Cc1csc2ccccc12)C(=O)N[C@@H](Cc1ccccc1)C(N)=O [Compound 157, Ac-Gly-Thi-Orn-Aze-cha-Bta-Phe-NH2] (Ac-G[2Thi][Orn][Aze][dCha][Bta]F-NH2)
The IC50 of the first is higher: 50 to 200 nM for the first, 20 to 50 nM for the second.

`CC(=O)NCCC[C@H](NC(=O)[C@H](Cc1ccccc1)NC(C)=O)C(=O)N1CCC[C@H]1C(=O)N[C@H](CC1CCCCC1)C(=O)N[C@@H](Cc1c[nH]c2ccccc12)C(=O)N[C@@H](Cc1ccccc1)C(N)=O` [Compound 82, Ac-Phe-Orn(Ac)-Pro-cha-Trp-Phe-NH2] (Ac-F[Orn](Ac)P[dCha]WF-NH2) and `CC(=O)N[C@@H](Cc1ccccc1)C(=O)N[C@@H](Cc1c[nH]cn1)C(=O)N1CCC[C@H]1C(=O)N[C@H](CC1CCCCC1)C(=O)N[C@@H](Cc1csc2ccccc12)C(=O)N[C@@H](Cc1ccccc1)C(N)=O` [Compound 230, Ac-Phe-His-Pro-cha-Bta-Phe-NH2] (Ac-FHP[dCha][Bta]F-NH2) fall in the same range of IC50: 50 to 200 nM for the first, 50 to 200 nM for the second.

`CCCC[C@@H]1NC(=O)[C@H](Cc2c[nH]c3ccccc23)NC(=O)[C@@H](CCC(C)C)NC(=O)[C@@H]2C[C@@H](O)CN2C(=O)[C@@H](NC(=O)[C@H](Cc2ccccc2)NC(=O)CCN)CCCNC1=O` [Compound 342, H-Bal-Phe-[Orn-Hyp-hle-Trp-Nle]] (H-[βAla]F[Orn][Hyp][d(hLeu)]W[Nle]; lactam 3-C) and `CCCC[C@@H]1NC(=O)[C@H](Cc2ccc(Cl)c(Cl)c2)NC(=O)[C@@H](CCC(C)C)NC(=O)[C@H](CO)NC(=O)[C@@H](NC(=O)[C@@H](N)Cc2ccccc2)CCCNC1=O` [Compound 384, H-Phe-[Orn-Ser-hle-Eaa-Nle]] (H-F[Orn]S[d(hLeu)][Phe(3,4-Cl2)][Nle]; lactam 2-C) fall in the same range of IC50: 50 to 200 nM for the first, 50 to 200 nM for the second.

For `CC(=O)N[C@@H](Cc1ccccc1)C(=O)N[C@H]1CCCNC(=O)[C@H](CSCc2cccnc2)NC(=O)[C@H](Cc2c[nH]c3ccccc23)NC(=O)[C@@H](CC2CCCCC2)NC(=O)[C@@H]2CCCN2C1=O` [compound 17] (Ac-F[Orn]P[dCha]WC(X22); lactam 2-C), the IC50 was 200 to 2000 nM.

Same assay, conditions: functional assay of example 11; noteworthy = IC50 less than 200 nM

In the case of `CC(=O)N[C@@H](Cc1ccccc1)C(=O)N[C@H]1CCCNC(=O)[C@H](CCC(C)C)NC(=O)[C@H](Cc2c[nH]c3ccccc23)NC(=O)[C@@H](CC2CCCCC2)NC(=O)[C@@H]2CCCN2C1=O` [Compound 32, Ac-Phe-[Orn-Pro-cha-Trp-Hle]] (Ac-F[Orn]P[dCha]W[hLeu]; lactam 2-C), the “inhibitory activity (in words)” value is reported as “without significant loss of activity”.

Same assay, conditions: functional assay of example 11; noteworthy = IC50 less than 200 nM; listed as Ac-Phe-[Orn-Pro-cha-Trp-Hle]

In the case of `CC(=O)N[C@@H](Cc1ccccc1)C(=O)N[C@H]1CCCNC(=O)[C@H](CCC(C)C)NC(=O)[C@H](Cc2c[nH]c3ccccc23)NC(=O)[C@@H](CC2CCCCC2)NC(=O)[C@@H]2CCCN2C1=O` [Compound 32, Ac-Phe-[Orn-Pro-cha-Trp-Hle]] (Ac-F[Orn]P[dCha]W[hLeu]; lactam 2-C), the “inhibitory activity (in words)” value is reported as “noteworthy inhibitory activity”.
